Results published in US12559506B2, “Indazole based compounds and associated methods of use” (Arvinas Operations, Inc., priority 2021, dated 2026).
Read-outs that look alike come from different tables or passages of the source.

Key:
[1] = molecular target: T1, G2019S LRRK2 (Homo sapiens, UniProt Q5S007, G2019S); test: LRRK2 degradation assay, HiBit-tagged G2019S LRRK2 expressed from plasmid in HEK293 cells (Nano-Glo Dual-Luciferase); type: cell-based; conditions: 24 hours
T1 construct: expressed in transfected cells; host or cells: HEK293 (ATCC CRL-1573), transient transfection, mammalian expression vector with ubiquitin promoter
T1 sequence (Q5S007 whole entry G2019S): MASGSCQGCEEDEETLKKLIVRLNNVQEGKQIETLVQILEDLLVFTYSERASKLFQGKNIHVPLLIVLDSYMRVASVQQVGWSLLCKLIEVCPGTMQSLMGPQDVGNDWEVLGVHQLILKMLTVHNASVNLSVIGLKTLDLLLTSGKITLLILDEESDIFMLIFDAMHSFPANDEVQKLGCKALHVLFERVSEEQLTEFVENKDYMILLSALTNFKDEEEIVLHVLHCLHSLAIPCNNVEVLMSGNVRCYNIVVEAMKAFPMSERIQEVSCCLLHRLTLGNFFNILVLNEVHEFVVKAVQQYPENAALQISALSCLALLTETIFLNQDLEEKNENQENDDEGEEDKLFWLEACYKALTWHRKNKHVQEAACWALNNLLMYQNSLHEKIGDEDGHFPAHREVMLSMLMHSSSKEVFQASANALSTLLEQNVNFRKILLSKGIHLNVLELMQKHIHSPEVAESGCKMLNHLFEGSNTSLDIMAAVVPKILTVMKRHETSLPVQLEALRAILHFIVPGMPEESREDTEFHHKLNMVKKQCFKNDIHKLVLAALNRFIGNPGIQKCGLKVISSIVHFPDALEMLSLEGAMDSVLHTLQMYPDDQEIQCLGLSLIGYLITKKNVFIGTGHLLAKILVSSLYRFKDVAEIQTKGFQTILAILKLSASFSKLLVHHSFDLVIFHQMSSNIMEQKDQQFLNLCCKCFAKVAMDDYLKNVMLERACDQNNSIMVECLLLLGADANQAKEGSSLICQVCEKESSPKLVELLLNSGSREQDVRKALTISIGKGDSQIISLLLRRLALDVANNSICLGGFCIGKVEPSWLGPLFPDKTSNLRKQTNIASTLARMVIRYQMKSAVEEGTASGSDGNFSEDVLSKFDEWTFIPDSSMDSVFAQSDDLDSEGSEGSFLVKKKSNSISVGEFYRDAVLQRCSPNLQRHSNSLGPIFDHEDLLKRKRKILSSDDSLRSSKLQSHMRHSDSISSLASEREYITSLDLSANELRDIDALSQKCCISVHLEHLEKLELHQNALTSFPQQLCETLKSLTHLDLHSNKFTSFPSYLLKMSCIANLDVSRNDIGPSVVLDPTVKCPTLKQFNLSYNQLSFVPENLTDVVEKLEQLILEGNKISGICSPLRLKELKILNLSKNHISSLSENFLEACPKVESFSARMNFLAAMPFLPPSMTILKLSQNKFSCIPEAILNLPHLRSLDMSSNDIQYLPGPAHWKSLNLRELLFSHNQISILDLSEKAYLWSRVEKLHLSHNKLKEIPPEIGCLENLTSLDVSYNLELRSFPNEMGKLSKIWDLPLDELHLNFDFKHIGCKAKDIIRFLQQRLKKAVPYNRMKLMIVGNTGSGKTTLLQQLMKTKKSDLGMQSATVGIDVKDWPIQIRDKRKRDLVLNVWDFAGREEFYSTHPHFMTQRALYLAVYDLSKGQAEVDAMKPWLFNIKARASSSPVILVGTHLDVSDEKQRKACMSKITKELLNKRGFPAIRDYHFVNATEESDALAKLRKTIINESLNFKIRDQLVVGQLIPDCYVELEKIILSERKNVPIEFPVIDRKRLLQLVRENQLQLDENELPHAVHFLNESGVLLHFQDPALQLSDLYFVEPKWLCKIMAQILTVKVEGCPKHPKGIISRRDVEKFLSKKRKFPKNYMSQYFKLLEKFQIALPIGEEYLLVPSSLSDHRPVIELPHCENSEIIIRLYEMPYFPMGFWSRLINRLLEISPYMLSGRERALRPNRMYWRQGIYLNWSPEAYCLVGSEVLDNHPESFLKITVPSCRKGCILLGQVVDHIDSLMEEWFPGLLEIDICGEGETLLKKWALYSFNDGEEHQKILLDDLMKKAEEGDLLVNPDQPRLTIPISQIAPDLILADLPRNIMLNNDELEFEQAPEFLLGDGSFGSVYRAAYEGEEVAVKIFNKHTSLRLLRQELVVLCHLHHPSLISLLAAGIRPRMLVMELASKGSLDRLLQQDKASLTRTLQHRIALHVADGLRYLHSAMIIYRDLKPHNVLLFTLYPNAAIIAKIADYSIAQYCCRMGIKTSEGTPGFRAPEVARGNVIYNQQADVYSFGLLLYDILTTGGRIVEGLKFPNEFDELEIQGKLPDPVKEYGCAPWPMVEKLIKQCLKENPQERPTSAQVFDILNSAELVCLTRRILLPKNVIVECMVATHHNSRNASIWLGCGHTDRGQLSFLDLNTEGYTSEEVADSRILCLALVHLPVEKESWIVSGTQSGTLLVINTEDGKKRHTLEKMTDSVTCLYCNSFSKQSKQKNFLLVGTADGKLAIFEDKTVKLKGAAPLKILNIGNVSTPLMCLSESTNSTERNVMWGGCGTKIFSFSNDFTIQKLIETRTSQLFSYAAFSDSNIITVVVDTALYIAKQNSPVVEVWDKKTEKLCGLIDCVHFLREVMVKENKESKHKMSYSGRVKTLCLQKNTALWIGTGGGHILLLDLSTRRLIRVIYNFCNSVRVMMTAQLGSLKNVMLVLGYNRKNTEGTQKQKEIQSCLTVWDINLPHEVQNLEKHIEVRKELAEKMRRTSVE
From the text: (§1) Exemplary Assay for Testing LRRK2 Degradation Driven by Exemplary Hetero-Bifunctional Compounds Designed to Target LRRK2
(§2) The assay measures the degradation of wildtype and G2019S LRRK2 tagged with a HiBit tag on the C-terminus of the protein that was expressed from a mammalian expression vector, driven by the ubiquitin promoter in HEK293 cells. Each compound dose-response was repeated on two separate days, on three separate plates each day.
(§3) Plasmid Preparation. Transfection mixes were assembled as follows and incubated for 30 minutes at room temperature. In a 15 mL tube, 5.25 mL Opti-MEM (no additions) was mixed with 17 μL Firefly Luciferase plasmid at 1 μg/μL and 158 μL WT plasmid DNA at 1 μg/μL (175 μg total DNA) were mixed by flicking. In a new 15 mL tube, 5.25 mL OptiMEM was mixed with 17 μL Firefly Luciferase plasmid at 1 μg/μL and 158 μL G2019S plasmid DNA at 1 μg/μL (175 μg total DNA) were mixed by flicking. X-tremeGene HP was mixed thoroughly using a vortex. Next, 175 μL was added to each tube and flicked to mix. Both tubes were left to incubate for 30 minutes at room temperature.
(§4) While the transfection mixes were incubating, HEK293 cells (acquired from ATCC; ATCC CRL-1573) were harvested with trypsin. Once cells are detached, the cells were resuspended in 12 mL OptiMEM+5% FBS and transferred to a 50 mL tube. The cells were mixed well and counted. Using OptiMEM+5% FBS, the cells were diluted in two 250 mL conical tubes at 0.71×10^6 cells/mL in 70 mL. One tube was labeled “WT” and the other “G2019S”. The WT and G2019S transfection mixes were added dropwise to the corresponding 250 mL tubes. The tubes were mixed first by pipetting then by swirling. The tubes were incubated at room temperature for at least 5 minutes.
(§5) Each tube was swirled before dispensing and after every three plates. Seventy microliters of cells were dispensed with WT or G2019S DNA to seven plates each. Three plates of each were tested with compound plate one (preparation described below) and three plates of each were tested with compound plate two (preparation described below). The first plate from each set served as a “prime” plate and was not used to test compounds. Each plate was incubated in the hood for 10 minutes before placing in the 37° C. incubator for 24 hours.
(§6) Preparation of Compound and Assay Plates. Two compound plates were made using 96 well polypropylene plates. Compounds were made up at 10 mM and were diluted to 1 mM in 30 μL. Each dose response curve included a well of DMSO, as a negative control and for normalization, and a well of 0.5 μM of Compound 4 as a positive control. In addition to seven test compounds, each plate also included a dose response of Compound 4. The compound plates were spun down along at 1200 rpm for 2 minutes.
(§7) The two compound plates were then mixed and 2 μL was diluted in intermediate plates having 248 μL of Opti-Mem in each well. Next, 10 μL diluted compounds from the intermediate plates were added to each test plate (three WT and three G2019S plates per compound plate for a total of 12 assay plates). The plates were incubated for 24 hours at 37° C.
(§8) All assay plates and all Nano-Glo Dual-Luciferase Reporter Assay System components (except for the DLR substrate) were equilibrated to room temperature. Next, the luciferase buffer was mixed with the lyophilized amber bottle until fully dissolved, and 75 μL of the luciferase mixture was added to each well of each assay plate. The assay plates were incubated for 10 minutes at room temperature with shaking for at least 5 minutes, and then read on a plate reader.
(§9) Developing Plates and Analyzing Data. One milliliter of DLR substrate and 1 mL LgBiT Protein were added to the Stop and Glo buffer, and 75 μL of the mixture was added to each well of each plate. Optically clear seals were added to each plate and each plate was incubated for 20 minutes with shaking for at least 10 minutes, and then read on a plate reader. […]

[2] = molecular target: T2, wildtype LRRK2 (Homo sapiens, UniProt Q5S007); test: LRRK2 degradation assay, HiBit-tagged wildtype LRRK2 expressed from plasmid in HEK293 cells (Nano-Glo Dual-Luciferase); type: cell-based; conditions: 24 hours; for Dmax: read-out: **WT Dmax (%); for DC50: read-out: *WT DC50
T2 construct: expressed in transfected cells; host or cells: HEK293 (ATCC CRL-1573), transient transfection, mammalian expression vector with ubiquitin promoter
T2 sequence (Q5S007 whole entry): as the sequence (Q5S007 whole entry G2019S) above, with S2019G counted along it
From the text: as §1, §2, §3, §4, §5, §6, §7, §8, §9

[3] = HiBit-tagged G2019S LRRK2, HEK293 cells
[4] = HiBit-tagged wildtype LRRK2, HEK293 cells
[5] = HiBit-tagged G2019S LRRK2 in HEK293 cells
[6] = HiBit-tagged wildtype LRRK2 in HEK293 cells

DC50 [1, 3] [nM] | Dmax [1, 3] [%] | Dmax [2, 4] [%] | DC50 [2, 4] [nM] | DC50 [1, 5] [nM] | Dmax [1, 5] [%] | Dmax [2, 6] [%] | DC50 [2, 6] [nM] | SMILES
< 10 | 50 to 70 | < 50 | < 10 | – | – | – | – | C[C@H]1CN(c2cc(-c3n[nH]c4ccc(OC5(C)CC5)cc34)ncn2)CCN1CC1CCN(CCC2CCN(c3ccc4c(c3)C(=O)N(C3CCC(=O)NC3=O)C4=O)CC2)CC1 (stereo partly drawn) [Compound 159, 2-(2,6-dioxo-3-piperidyl)-5-[4-[2-[4-[[(2S)-2-methyl-4-[6-[5-(1-methylcyclopropoxy)-1H-indazol-3-yl]pyrimidin-4-yl]piperazin-1-yl]methyl]-1-piperidyl]ethyl]-1-piperidyl]isoindoline-1,3-dione]
< 10 | < 50 | 50 to 70 | < 10 | – | – | – | – | CC1(Oc2ccc3[nH]nc(-c4cc(N5CCC(CN6CC7(CCN7CC7CCN(c8ccc9c(c8)C(=O)N(C8CCC(=O)NC8=O)C9=O)CC7)C6)CC5)ncn4)c3c2)CC1 (stereo not shown) [Compound 176, 2-(2,6-dioxo-3-piperidyl)-5-[4-[[6-[[1-[6-[5-(1-methylcyclopropoxy)-1H-indazol-3-yl]pyrimidin-4-yl]-4-piperidyl]methyl]-1,6-diazaspiro[3.3]heptan-1-yl]methyl]-1-piperidyl]isoindoline-1,3-dione]
– | – | – | – | < 10 | ≥ 70 | ≥ 70 | < 10 | CC1(Oc2ccc3[nH]nc(-c4cc(N5C[C@@H]6[C@@H](CN7CCN(CC8CCN(c9ccc%10c(c9)C(=O)N(C9CCC(=O)NC9=O)C%10=O)CC8)CC7)[C@@H]6C5)ncn4)c3c2)CC1 (stereo partly shown) [Compound 75, 2-(2,6-dioxopiperidin-3-yl)-5-{4-[(4-{[(1r,5s,6s)-3-{6-[5-(1-methylcyclopropoxy)-1H-indazol-3-yl]pyrimidin-4-yl}-3-azabicyclo[3.1.0]hexan-6-yl]methyl}piperazin-1-yl)methyl]piperidin-1-yl}-2,3-dihydro-1H-isoindole-1,3-dione]
< 10 | 50 to 70 | 50 to 70 | < 10 | – | – | – | – | CC1(Oc2ccc3[nH]nc(-c4cc(N5CCO[C@H](CCN6CCN(CC7CCN(c8ccc9c(c8)C(=O)N(C8CCC(=O)NC8=O)C9=O)CC7)CC6)C5)ncn4)c3c2)CC1 (stereo partly drawn) [Compound 155, 2-(2,6-dioxopiperidin-3-yl)-5-{4-[(4-{2-[(2R)-4-{6-[5-(1-methylcyclopropoxy)-1H-indazol-3-yl]pyrimidin-4-yl}morpholin-2-yl]ethyl}piperazin-1-yl)methyl]piperidin-1-yl}-2,3-dihydro-1H-isoindole-1,3-dione]
– | – | – | – | < 10 | 50 to 70 | 50 to 70 | < 10 | C[C@H]1CN(c2cc(-c3[nH]nc4ccc(OC5(C)CC5)cc34)ncn2)CCN1CC1CCN(CC2CCN(c3ccc4c(c3)CN(C3CCC(=O)NC3=O)C4=O)CC2)CC1 (stereo partly drawn) [Compound 109, 3-[5-[4-[[4-[[(2S)-2-methyl-4-[6-[5-(1-methylcyclopropoxy)-2H-indazol-3-yl]pyrimidin-4-yl]piperazin-1-yl]methyl]-1-piperidyl]methyl]-1-piperidyl]-1-oxo-isoindolin-2-yl]piperidine-2,6-dione]
< 10 | 50 to 70 | 50 to 70 | < 10 | – | – | – | – | CC1(Oc2ccc3[nH]nc(-c4cc(N5CCC(CN6CC7(CN(CC8CCN(c9ccc%10c(c9)C(=O)N(C9CCC(=O)NC9=O)C%10=O)CC8)C7)C6)CC5)ncn4)c3c2)CC1 (stereo not shown) [Compound 175, 2-(2,6-dioxo-3-piperidyl)-5-[4-[[2-[[1-[6-[5-(1-methylcyclopropoxy)-1H-indazol-3-yl]pyrimidin-4-yl]-4-piperidyl]methyl]-2,6-diazaspiro[3.3]heptan-6-yl]methyl]-1-piperidyl]isoindoline-1,3-dione]
– | – | – | – | < 10 | < 50 | 50 to 70 | < 10 | CC1(Oc2ccc3[nH]nc(-c4cc(N5CCN(C[C@H]6CCN(CC7CCN(c8ccc9c(c8)C(=O)N(C8CCC(=O)NC8=O)C9=O)CC7)C(=O)C6)CC5)ncn4)c3c2)CC1 (single isomer, unassigned) [Compound 104]
